# According to US12441733B2, “Substituted 2,4-dioxotetrahydropyrimidines as intermediates in the synthesis of bruton's tyrosine kinase inhibitors” (Novartis AG, priority 2018, dated 2025):
# Target: T1, BTK(C481S)-GFP (Homo sapiens, UniProt Q06187+Q96SW2, C481S)
# T1 construct: CHYSEL (cis-acting hydrolase element, 2A) remnant after GFP; mCherry is split off as a separate protein (C); expressed in transfected cells; host or cells: TMD8 cells, lentiviral transduction with pLenti6-BTK(C481S)-GFP-CHYSEL-mCherry
# Experiment: BTK(C481S)-GFP protein abundance flow cytometry assay in TMD8 cells
# Type: cell-based
# Conditions: TMD8 cells expressing BTK(C481S)-GFP; for DC50: GFP signal by flow cytometry; for BTK (C481S) Amax: % protein remaining at maximum degradation
# Procedure: Compounds of the invention were tested in the following cellular assays. The terms in Table 2 are defined as follows: DC50 refers to the concentration at which 50% maximal degradation was observed; deg Amax is the extent of degradation and the value refers to the % protein remaining at the concentration at which maximum degradation is seen; ProI GI50 refers to the proliferation data and defines the concentration at which 50% growth inhibition was observed compared to the vehicle treated control at the end of the incubation time. TMD8 cells are BTK dependent and OCI-LY3 cells are BTK independent.
# Btk(C481S)-GFP Protein Abundance Flow Cytometry Assay in TMD8 Cells:
# Degradation of BTK(C481S) was measured in TMD8 cells expressing BTK(C481S)-GFP and mCherry from a stably integrated second generation bicistronic BTK(C481S)-GFP-CHYSEL-mCherry construct. Reduction of the […] measured by flow cytometry served as readout for BTK(C481S) degradation after degrader treatment.
# Cloning of the pLenti6-BTK(C481)-GFP-CHYSEL-mCherry Sensor Vectors
# The BTK(C481 S) protein abundance sensor is based on a second generation bicistronic construct, where the 2 reading frames BTK(C481S) and mCherry control are separated by a cis-acting hydrolase element (see: Lo et al., 2015 Cell Reports 13, 2634), replacing the Ires from the first generation vector described before.
# The bicistronic BTK(C481S)-GFP-CHYSEL-mCherry construct is based on a pLenti6-DEST vector backbone where a GFP-CHYSEL-mCherry cassette was synthesized and inserted downstream of the DEST cassette by Gibson assembly resulting in the new gateway compatible vector pLenti6-DEST-GFP-CHYSEL-mCherry to allow Gateway cloning with pENTR221-BTK(C48S)(STOP-Leu) to obtain the final sensor construct pLenti6-BTK(C481S)-GFP-CHYSEL-mCherry. The pENTR221-BTK(C481S)(STOP-Leu) was generated by mutating wild-type BTK to BTK(C481S) with a mutagenesis reaction on pENTR221-BTK (STOP-Leu) with the following primers (BTK C481S Quikchange fw, gagtacatggccaatggctCcctcctgaactacctgagg (SEQ ID NO: 7); BTK C481S Quikchange REVC, cctcaggtagttcaggaggGagccattggccatgtactc (SEQ ID NO: 8)) using the QuikChange Lightning mutagenesis kit (Agilent Technologies #210518) performed according to the manufacturer's manual, resulting in pENTR221-BTK(C481S)(STOP-Leu).
# Sequence of the synthesized construct (Xho1 sites are shown in bold, mCherry-ORF is shown in small letters):
# Engineering of Stably Expressing TMD8 BTK(C481 S-GFP-CHYSEL-mCherry Sensor Cells
# TMD8 BTK(C481S)-GFP-CHYSEL-mCherry sensor cells were generated by lentiviral vector transduction using the pLenti6-BTK(C4818)-GFP-CHYSEL-mCherry sensor construct described before. Lentiviral particles were produced in HEK293FT cells (Invitrogen R70007) by co-transfection of 500 ng pLenti6-BTK-GFP-Ires-RFP or pLenti6-IKZF3-GFP-Ires-RFP, 500 ng delta8.71 and 200 ng pVSVG diluted in 100 μl OptiMEM serum free medium (Invitrogen #11058-021) that was mixed after 5 min preincubation with 3 μl of Lipofectamine2000 (Invitrogen #11668-019) in 97 μl OptiMEM serum free medium. The mix was incubated for another 20 min at RT and then added to 1 ml of a freshly prepared suspension of HEK293FT cells in a well of a 6-well plate (concentration 1.2×10^6 cells/ml). 1 day after transfection, the medium was replaced with 1.5 ml of complete growth medium (DMEM high Glucose+10% FCS+1% L-Glutamine+1% NEAA+1% NaPyr.). 48 h post transfection supernatant containing viral transducing particles was collected and frozen at −80° C.
# Two days before transduction with viral particles 1×10^5 HEK293A cells (Invitrogen R7057) were seeded in 2 ml growth medium in a well of a 6-well plate. Infection was performed with 90 μl of collected supernatant containing viral transducing particles in 1 ml medium including 8 μg/ml polybrene. 24 h post infection, stably transfected cells were selected with blasticidin at a concentration of 8 μg/ml.
# T1 sequence (Q06187 whole entry C481S): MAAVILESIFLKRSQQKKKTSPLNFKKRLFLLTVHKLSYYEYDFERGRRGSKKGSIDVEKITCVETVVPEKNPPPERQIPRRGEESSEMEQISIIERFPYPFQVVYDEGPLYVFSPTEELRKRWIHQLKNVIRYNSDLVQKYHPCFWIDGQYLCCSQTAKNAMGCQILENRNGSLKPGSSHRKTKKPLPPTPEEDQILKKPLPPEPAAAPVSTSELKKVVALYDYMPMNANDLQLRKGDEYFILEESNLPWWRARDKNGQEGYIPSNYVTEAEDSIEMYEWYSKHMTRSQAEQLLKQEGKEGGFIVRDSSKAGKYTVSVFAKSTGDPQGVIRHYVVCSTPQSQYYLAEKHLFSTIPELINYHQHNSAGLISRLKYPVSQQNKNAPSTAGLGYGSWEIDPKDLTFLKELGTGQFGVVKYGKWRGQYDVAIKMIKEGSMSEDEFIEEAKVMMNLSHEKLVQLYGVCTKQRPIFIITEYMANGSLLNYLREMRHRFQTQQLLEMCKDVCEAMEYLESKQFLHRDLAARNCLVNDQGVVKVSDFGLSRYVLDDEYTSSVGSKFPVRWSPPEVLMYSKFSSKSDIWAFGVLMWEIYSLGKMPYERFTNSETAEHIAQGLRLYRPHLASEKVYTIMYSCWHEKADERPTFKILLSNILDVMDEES
# T1 sequence (Q96SW2 whole entry): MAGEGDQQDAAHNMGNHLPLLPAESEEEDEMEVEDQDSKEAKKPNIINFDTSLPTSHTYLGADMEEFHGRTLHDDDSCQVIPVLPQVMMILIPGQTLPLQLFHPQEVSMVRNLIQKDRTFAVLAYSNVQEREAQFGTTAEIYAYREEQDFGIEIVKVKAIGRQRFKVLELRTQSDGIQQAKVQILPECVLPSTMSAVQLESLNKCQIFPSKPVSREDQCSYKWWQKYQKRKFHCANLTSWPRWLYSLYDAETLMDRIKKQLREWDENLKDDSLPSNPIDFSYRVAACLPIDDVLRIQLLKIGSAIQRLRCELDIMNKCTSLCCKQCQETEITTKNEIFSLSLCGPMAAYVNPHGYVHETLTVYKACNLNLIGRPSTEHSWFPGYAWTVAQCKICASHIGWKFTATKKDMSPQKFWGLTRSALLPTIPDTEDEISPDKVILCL
# T1 sequence (Q16531 whole entry partner): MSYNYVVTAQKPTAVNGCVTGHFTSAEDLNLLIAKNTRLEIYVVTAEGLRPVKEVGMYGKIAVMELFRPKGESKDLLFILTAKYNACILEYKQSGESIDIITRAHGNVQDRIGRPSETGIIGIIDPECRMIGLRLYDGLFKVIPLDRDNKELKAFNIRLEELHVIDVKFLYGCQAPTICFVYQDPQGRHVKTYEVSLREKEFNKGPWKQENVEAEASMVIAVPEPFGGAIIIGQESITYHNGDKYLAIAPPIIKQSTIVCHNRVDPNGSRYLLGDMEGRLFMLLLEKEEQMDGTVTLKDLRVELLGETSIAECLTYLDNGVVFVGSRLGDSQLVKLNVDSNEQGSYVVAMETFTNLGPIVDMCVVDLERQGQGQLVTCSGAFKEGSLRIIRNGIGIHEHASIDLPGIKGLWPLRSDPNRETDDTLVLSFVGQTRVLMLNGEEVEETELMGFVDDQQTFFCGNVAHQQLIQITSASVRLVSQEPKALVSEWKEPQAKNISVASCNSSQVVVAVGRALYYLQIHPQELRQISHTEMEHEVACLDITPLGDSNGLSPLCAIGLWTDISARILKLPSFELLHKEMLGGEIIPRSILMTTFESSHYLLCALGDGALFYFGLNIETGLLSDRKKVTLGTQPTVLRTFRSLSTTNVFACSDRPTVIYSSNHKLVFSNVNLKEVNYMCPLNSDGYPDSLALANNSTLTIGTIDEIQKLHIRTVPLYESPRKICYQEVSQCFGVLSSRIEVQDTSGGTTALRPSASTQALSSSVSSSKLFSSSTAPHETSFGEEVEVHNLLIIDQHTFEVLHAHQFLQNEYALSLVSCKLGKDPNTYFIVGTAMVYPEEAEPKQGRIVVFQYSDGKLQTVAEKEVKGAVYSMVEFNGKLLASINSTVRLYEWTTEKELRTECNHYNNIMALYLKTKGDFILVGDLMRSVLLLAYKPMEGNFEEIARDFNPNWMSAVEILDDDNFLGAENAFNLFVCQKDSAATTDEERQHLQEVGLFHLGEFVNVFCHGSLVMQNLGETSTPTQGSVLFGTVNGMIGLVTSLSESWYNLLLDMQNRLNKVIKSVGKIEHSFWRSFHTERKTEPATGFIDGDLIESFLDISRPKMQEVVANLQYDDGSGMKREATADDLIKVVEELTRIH
DC50 [nM],BTK (C481S) Amax [%],Compound
0.68,2.4,"COc1ccc(C(=O)N2CCC3(CC2)CCN(C(C)(C)Cc2ccc(-c4cc5c(-c6cc(F)cc(NC(=O)c7ccc(C(C)(C)O)cc7F)c6C)ncnc5[nH]4)cc2)CC3)cc1N1CCC(=O)NC1=O [Compound 20, N-(3-(6-(4-(2-(9-(3-(2,4-Dioxotetrahydropyrimidin-1(2H)-yl)-4-methoxybenzoyl)-3,9-diazaspiro[5.5]undecan-3-yl)-2-methylpropyl)phenyl)-7H-pyrrolo[2,3-d]pyrimidin-4-yl)-5-fluoro-2-methylphenyl)-2-fluoro-4-(2-hydroxypropan-2-yl)benzamide]"
1.52,2.8,"Cc1c(NC(=O)c2ccc(C(C)(C)O)cc2F)cc(F)cc1-c1ncnc2[nH]c(-c3ccc(CN4CCC5(CC4)CCN(C(=O)c4ccc(F)c(N6CCC(=O)NC6=O)c4)CC5)cc3)cc12 [Compound 14, N-(3-(6-(4-((9-(3-(2,4-Dioxotetrahydropyrimidin-1(2H)-yl)-4-fluorobenzoyl)-3,9-diazaspiro[5.5]undecan-3-yl)methyl)phenyl)-7H-pyrrolo[2.3-d]pyrimidin-4-yl)-5-fluoro-2-methylphenyl)-2-fluoro-4-(2-hydroxypropan-2-yl)benzamide]"
1.92,4.5,"COc1ccc(C(=O)N2CCC3(CCN(Cc4ccc(-c5cc6c(-c7cc(F)cc(NC(=O)c8ccc(C(C)(C)O)cc8F)c7C)ncnc6[nH]5)cc4)CC3)CC2)cc1N1CCC(=O)NC1=O [Compound 9, N-(3-(6-(4-((9-(3-(2,4-Dioxotetrahydropyrimidin-1(2H)-yl)-4-methoxybenzoyl)-3,9-diazaspiro[5.5]undecan-3-yl)methyl)phenyl)-7H-pyrrolo[2.3-d]pyrimidin-4-yl)-5-fluoro-2-methylphenyl)-2-fluoro-4-(2-hydroxypropan-2-yl)benzamide]"
1.94,1.6,"COc1ccc(C(=O)N2CCC(OC3CCN(CCc4ccc(-c5cc6c(-c7cc(F)cc(NC(=O)c8ccc(C(C)(C)O)cc8F)c7C)ncnc6[nH]5)cc4)CC3)CC2)cc1N1CCC(=O)NC1=O [Compound 34, N-(3-(6-(4-(2-(4-((1-(3-(2,4-Dioxotetrahydropyrimidin-1(2H)-yl)-4-methoxybenzoyl)piperidin-4-yl)oxyl)piperidin-1-yl)ethyl)phenyl)-7H-pyrrolo[2,3-d]pyrimidin-4-yl)-5-fluoro-2-methylphenyl)-2-fluoro-4-(2-hydroxypropan-2-yl)benzamide]"
0.62,2.7,"COc1ccc(C(=O)N2CCC(CN3CCC(Oc4ccc(-c5cc6c(-c7cc(F)cc(NC(=O)c8ccc(C(C)(C)O)cc8F)c7C)ncnc6[nH]5)cc4)CC3)CC2)cc1N1CCC(=O)NC1=O [Compound 19, N-(3-(6-(4-((1-((1-(3-(2,4-Dioxotetrahydropyrimidin-1(2H)-yl)-4-methoxybenzoyl)piperidin-4-yl)methyl)piperidin-4-yl)oxyl)phenyl)-7H-pyrrolo[2,3-d]pyrimidin-4-yl)-5-fluoro-2-methylphenyl)-2-fluoro-4-(2-hydroxypropan-2-yl)benzamide]"
